This note sets out measurements from patent publication US12448394B2, “Heterocyclic pyrazole derivatives as type III receptor tyrosine kinase inhibitors” (DEVELOPMENT CENTER FOR BIOTECHNOLOGY, priority 2019, dated 2025).

Assay [1] concerns MV4-11 human acute myeloid leukemia cell with FLT3-ITD mutation. Kind of assay: MV4-11 cell proliferation assay (CellTiter 96). Format: cell-based. To be noted: Homo sapiens, MV4-11, 72 h, MV4-11 cells, 72 hours treatment, CellTiter96; read-out: anti-proliferation activity MV4-11 (FLT3-ITD), IC50 ranking. Put shortly: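 Cells seeded at 6500/well in IMDM with 10% heat-inactivated FBS, left overnight at 37 °C, 5% CO2, then exposed to increasing compound concentrations for 72 h. Viability read as absorbance at 490 nm after 2–4 h with CellTiter96 AQueous One reagent.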

In assay [2] the test system is HCC827 NSCLC cell with EGFR exon 19 deletion mutation. Kind of assay: HCC827 cell proliferation assay (counter screen). To be noted: Homo sapiens, HCC827 cells, 72 hours treatment, CellTiter96, read-out: anti-proliferation activity HCC827 EGFR Exon19 del, IC50 ranking. The assay is classed as cell-based, human. Put shortly: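 HCC827 cells (EGFR exon 19 deletion) were seeded at 8000 cells/well in RPMI1640 with 10% FBS, then exposed to increasing compound concentrations for 72 h at 37 °C. Viability was read by CellTiter96 AQueous One (MTS), absorbance 490 nm after 2–4 h.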
(In general: The purpose of a counterscreen is to sort out artefacts and off-target activity.)

Assay [3] relates to phosphorylation of FLT3 and its down-stream effector STAT5. Kind of assay: Western blotting of p-FLT3 and p-STAT5 in MV4-11 cells. The assay is classed as cell-based. Particulars: Homo sapiens; at 30 nM treatment, 3 hours, FLT3-ITD positive MV4-11 leukemia cells; read-out: inhibition activity against phosphorylation of FLT3 and its down-stream effector STAT5. The method, boiled down: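 MV4-11 cells held overnight in IMDM with 0.1% FBS, then 3 million cells treated with compound for 3 h. Whole lysates immunoblotted for p-FLT3 (Tyr-591), p-STAT5 (Tyr-694) and actin. Band intensities at 30 nM compared to DMSO control; % inhibition = (1 − relative intensity) × 100.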
For orientation: A western blot detects proteins with antibodies after separation by electrophoresis.

For the compound `C[C@@H]1CN(Cc2ccc(-c3cc4c(s3)Cc3c(-c5ccc6cnn(C)c6c5)n[nH]c3-4)cc2)C[C@H](C)O1` [Compound 54, (2S,6R)-2,6-dimethyl-4-(4-(3-(1-methyl-1H-indazol-6-yl)-1,4-dihydro-thieno[2′,3′:4,5]cyclopenta [1,2-c]pyrazol-6-yl)benzyl)morpholine], the IC50 in assay [1] was below 0.03 µM; in assay [2] it was above 10 µM. In addition, in assay [3], the inhibition at 0.03 µM was above 50%.

Consider `Cn1ncc2ccc(-c3n[nH]c4c3Cc3sc(-c5cc(C(=O)N6CCOCC6)ccn5)cc3-4)cc21` [Compound 56, (2-(3-(1-methyl-1H-indazol-6-yl)-1,4-dihydro-thieno[2′,3′:4,5]cyclopenta [1,2-c]pyrazol-6-yl)pyridin-4-yl)(morpholino) methanone], for which the IC50 is below 0.03 µM in assay [1] and above 10 µM in assay [2]. Also, the inhibition at 0.03 µM in assay [3] is above 50%.

For `Cn1ncc2ccc(-c3n[nH]c4c3Cc3sc(C5=CCN(C(=O)N6CCOCC6)CC5)cc3-4)cc21` [Compound 57, (4-(3-(1-methyl-1H-indazol-6-yl)-1,4-dihydro-thieno[2′,3′:4,5]cyclopenta [1,2-c]pyrazol-6-yl)-3,6-dihydropyridin-1(2H)-yl) (morpholino)methanone], the IC50 in assay [1] was below 0.03 µM; in assay [2], above 10 µM. Besides, the inhibition at 0.03 µM in assay [3] is above 50%.

Consider `Cn1ncc2ccc(-c3n[nH]c4c3Cc3sc(C5CCN(C(=O)OC(C)(C)C)CC5)cc3-4)cc21` [Compound 58, tert-butyl-4-(3-(1-methyl-1H-indazol-6-yl)-1,4-dihydrothieno[2′,3′:4,5]cyclopenta[1,2-c]pyrazol-6-yl)piperidine-1-carboxylate], for which the IC50 was 0.03 to 0.1 µM in assay [1] and above 10 µM in assay [2]. The inhibition at 0.03 µM in assay [3] was above 50%.

For the compound `Cn1ncc2ccc(-c3n[nH]c4c3Cc3sc(-c5ccc(CN6CCOCC6=O)cc5)cc3-4)cc21` [Compound 59, 4-(4-(3-(1-methyl-1H-indazol-6-yl)-1,4-dihydro-thieno[2′,3′:4,5]cyclopenta [1,2-c]pyrazol-6-yl)benzyl)morpholin-3-one], the IC50 is below 0.03 µM in assay [1] and above 10 µM in assay [2]. Further, the inhibition at 0.03 µM in assay [3] is above 50%.

In the case of `Cn1ncc2ccc(-c3n[nH]c4c3Cc3sc(-c5csc(C(=O)N6CCOCC6)n5)cc3-4)cc21` [Compound 60, (4-(3-(1-methyl-1H-indazol-6-yl)-1,4-dihydro-thieno[2′,3′:4,5]cyclopenta [1,2-c]pyrazol-6-yl)thiazol-2-yl)(morpholino) methanone], the IC50 was below 0.03 µM in assay [1] and 1 to 10 µM in assay [2]. In assay [3], the inhibition at 0.03 µM is above 50%.

In the case of `Cn1ncc2ccc(-c3n[nH]c4c3Cc3sc(-c5ccc(CN6CCCCC6=O)cc5)cc3-4)cc21` [Compound 61, 1-(4-(3-(l-methyl-1H-indazol-6-yl)-1,4-dihydro-thieno[2′,3′:4,5]cyclopenta [1,2-c]pyrazol-6-yl)benzyl)piperidin-2-one], the values for the IC50 in assay [1] and in assay [2] were below 0.03 µM and above 10 µM, respectively. Also, the inhibition at 0.03 µM in assay [3] is above 50%.

For the compound `Cn1ncc2ccc(-c3n[nH]c4c3Cc3sc(-c5ccc(CN6CCNC(=O)C6)cc5)cc3-4)cc21` [Compound 63, 4-(4-(3-(1-methyl-1H-indazol-6-yl)-1,4-dihydro-thieno[2′,3′:4,5]cyclopenta [1,2-c]pyrazol-6-yl)benzyl)piperazin-2-one], the results for the IC50 in assay [1] and in assay [2] were below 0.03 µM and above 10 µM, respectively. In addition, the inhibition at 0.03 µM in assay [3] was above 50%.

`Cn1ncc2ccc(-c3n[nH]c4c3Cc3sc(-c5ccc(CN6CCCC6=O)cc5)cc3-4)cc21` [Compound 64, 1-(4-(3-(1-methyl-1H-indazol-6-yl)-1,4-dihydro-thieno[2′,3′:4,5]cyclopenta [1,2-c]pyrazol-6-yl)benzyl)pyrrolidin-2-one]: the IC50 is below 0.03 µM in assay [1] and above 10 µM in assay [2]. Moreover, the inhibition at 0.03 µM in assay [3] was above 50%.

Consider `CC1C(=O)N(C)CCN1Cc1ccc(-c2cc3c(s2)Cc2c(-c4ccc5cnn(C)c5c4)n[nH]c2-3)cc1` (stereo not drawn) [Compound 65, 1,3-dimethyl-4-(4-(3-(1-methyl-1H-indazol-6-yl)-1,4-dihydrothieno [2′,3′:4,5]cyclopenta [1,2-c]pyrazol-6-yl)benzyl)piperazin-2-one], for which the IC50 in assay [1] was below 0.03 µM; in assay [2] it was above 10 µM. In addition, the inhibition at 0.03 µM in assay [3] was above 50%.

Take `Cn1ncc2ccc(-c3n[nH]c4c3Cc3sc(-c5ccc(CCN6CCOCC6=O)cc5)cc3-4)cc21` [Compound 66, 4-(4-(3-(1-methyl-1H-indazol-6-yl)-1,4-dihydro-thieno[2′,3′:4,5]cyclopenta [1,2-c]pyrazol-6-yl)phenethyl)morpholin-3-one]: the IC50 in assay [1] was below 0.03 µM; in assay [2], above 10 µM. Besides, the inhibition at 0.03 µM in assay [3] is above 50%.

Turning to `Cn1ncc2ccc(-c3n[nH]c4c3Cc3sc(-c5ccc(OCCN6CCOCC6)cc5)cc3-4)cc21` [Compound 69, 4-(2-(4-(3-(1-methyl-1H-indazol-6-yl)-1,4-dihydro-thieno[2′,3′:4,5]cyclopenta [1,2-c]pyrazol-6-yl)phenoxy)ethyl)morpholine], the IC50 in assay [1] was below 0.03 µM; in assay [2], above 10 µM. Also, the inhibition at 0.03 µM in assay [3] was above 50%.

Turning to `Cn1ncc2ccc(-c3n[nH]c4c3Cc3sc(C#CCN5CCOCC5)cc3-4)cc21` [Compound 71, 4-(3-(3-(1-methyl-1H-indazol-6-yl)-1,4-dihydro-thieno[2′,3′:4,5]cyclopenta [1,2-c]pyrazol-6-yl)prop-2-yn-1-yl)morpholine], the IC50 in assay [1] was below 0.03 µM; in assay [2], above 10 µM. In addition, the inhibition at 0.03 µM in assay [3] was above 50%.

As to `Cn1ncc2ccc(-c3n[nH]c4c3Cc3sc(-c5ccc(NC6CCOCC6)cc5)cc3-4)cc21` [Compound 72, N-(4-(3-(1-methyl-1H-indazol-6-yl)-1,4-dihydro-thieno[2′,3′:4,5]cyclopenta [1,2-c]pyrazol-6-yl)phenyl)tetrahydro-2H-pyran-4-amine], the IC50 in assay [1] is 0.03 to 0.1 µM; in assay [2] it was above 10 µM. For the same compound, the inhibition at 0.03 µM in assay [3] was above 50%.

As to `C[C@@H]1COCCN1Cc1ccc(-c2cc3c(s2)Cc2c(-c4ccc5cnn(C)c5c4)n[nH]c2-3)cc1` [Compound 74, (R)-3-methyl-4-(4-(3-(1-methyl-1H-indazol-6-yl)-1,4-dihydrothieno [2′,3′:4,5]cyclopenta [1,2-c]pyrazol-6-yl)benzyl)morpholine], the IC50 in assay [1] was below 0.03 µM; in assay [2], above 10 µM. For the same compound, in assay [3], the inhibition at 0.03 µM is above 50%.

With `C[C@H]1COCCN1Cc1ccc(-c2cc3c(s2)Cc2c(-c4ccc5cnn(C)c5c4)n[nH]c2-3)cc1` [Compound 75, (S)-3-methyl-4-(4-(3-(1-methyl-1H-indazol-6-yl)-1,4-dihydrothieno [2′,3′:4,5]cyclopenta [1,2-c]pyrazol-6-yl)benzyl)morpholine], the IC50 was below 0.03 µM in assay [1] and above 10 µM in assay [2]. The inhibition at 0.03 µM in assay [3] is above 50%.

As for `Cn1ncc2ccc(-c3n[nH]c4c3Cc3sc(N5CCOCC5)cc3-4)cc21` [Compound 78, 4-(3-(1-methyl-1H-indazol-6-yl)-1,4-dihydro-thieno[2′,3′:4,5]cyclopenta [1,2-c]pyrazol-6-yl) morpholine], the values for the IC50 in assay [1] and in assay [2] were below 0.03 µM and above 10 µM, respectively. Besides, in assay [3], the inhibition at 0.03 µM is above 50%.

Take `Cn1ncc2ccc(-c3n[nH]c4c3Cc3sc(N5CCOCC5=O)cc3-4)cc21` [Compound 79, 4-(3-(1-methyl-1H-indazol-6-yl)-1,4-dihydro-thieno[2′,3′:4,5]cyclopenta [1,2-c]pyrazol-6-yl) morpholin-3-one]: the IC50 was below 0.03 µM in assay [1] and 1 to 10 µM in assay [2]. Moreover, the inhibition at 0.03 µM in assay [3] is above 50%.

In the case of `Cn1ncc2ccc(-c3n[nH]c4c3Cc3sc(-c5ccc(CN6CCC(N7CCOCC7)CC6)cc5)cc3-4)cc21` [Compound 80, 4-(1-(4-(3-(1-methyl-1H-indazol-6-yl)-1,4-dihydro-thieno[2′,3′:4,5]cyclopenta [1,2-c]pyrazol-6-yl)benzyl)piperidin-4-yl) morpholine], the values for the IC50 in assay [1] and in assay [2] were below 0.03 µM and above 10 µM, respectively. In assay [3], the inhibition at 0.03 µM is above 50%.

On to `Cn1ncc2ccc(-c3n[nH]c4c3Cc3sc(C5CCNCC5)cc3-4)cc21` [Compound 96, 3-(1-methyl-1H-indazol-6-yl)-6-(piperidin-4-yl)-1,4-dihydrothieno [2′,3′:4,5]cyclopenta [1,2-c]pyrazole], for which the IC50 in assay [1] is below 0.03 µM; in assay [2] it was 1 to 10 µM. In addition, the inhibition at 0.03 µM in assay [3] is above 50%.

Turning to `Cn1ncc2ccc(-c3n[nH]c4c3Cc3sc(-c5ccc(CN6CCCOCC6)cc5)cc3-4)cc21` [Compound 97, 4-(4-(3-(1-methyl-1H-indazol-6-yl)-1,4-dihydro-thieno[2′,3′:4,5]cyclopenta [1,2-c]pyrazol-6-yl)benzyl)-1,4-oxazepane], the IC50 in assay [1] is below 0.03 µM; in assay [2], above 10 µM. In addition, the inhibition at 0.03 µM in assay [3] is above 50%.

As usually defined, the inhibition is the percentage by which the read-out fell short of the control.
